Where no end group is shown, it is not given here.
Tests used:
annexin 1 = assay: Induction of annexin 1 in BxPC-3 cells, Western blot of nuclear and cytoplasmic extracts; type: cell-based, human; details: for expression of annexin 1: 5 mM conventional ASA, 100 μM cortisone; for annexin 1 expression with conventional NSAIDs: 6 h, each at 1 mM
Method: The human pancreatic cancer cell line, BxPC-3, or the colon cancer cell line HT-29, both from ATCC (Manassas, Va.) were maintained and grown in RPMI 1640 or McCoy's 5A medium (Cellgro) supplemented with 10% fetal bovine serum (HyClone) and 1% penicillin/streptomycin (Cellgro) in a humidified incubator at 37° C. and 5% CO2.
The cell fractions were obtained as described by Andrews and Faller (N. C. Andrews and D. V. Faller, Nucleic Acids Res. 19:2499 (1991)) with modification. Briefly, the cells were pelleted after treatment and washed three times with PBS. The cell pellets were resuspended in ice cold buffer A (10 mM HEPES, pH 7.9, 10 mM KCl, 1.5 mM MgCI2, 0.5 mM DTT, 0.5 mM PMSF) with protease inhibitor cocktail (Sigma) and incubated on ice for 15 min with occasional mixing by gently tapping the tube. The cell lysates were centrifuged up to 5000 rpm for three times. The supernatants were collected as cytoplasmic extracts. Nuclear pellets were washed with buffer A and resuspended in buffer C (20 mM HEPES, pH 7.9, 450 mM NaCl, 1.5 mM MgCI2, 0.2 mM EDTA, 0.5 mM DTT, 0.5 mM PMSF, 25% Glycerol) with protease inhibitor cocktail (Sigma) and incubated on ice for 30 min with occasional mixing to extract nuclear proteins. Nuclear extracts were cleared by centrifugation (14,800 rpm for 10 min) and the supernatants were collected as nuclear extracts.
For Western blotting, the proteins from both cytoplasmic extracts and nuclear extracts were separated by SDS-polyacrylamide gel electrophoresis and transferred onto PVDF membranes (Millipore). The membranes were blocked in 5% nonfat dry milk-TBS-T (20 mM Tris-HCl, pH 7.5, 500 mM NaCl. 0.3% Tween 20) at room temperature (RT) for an hour and probed with anti-annexin 1, c-IAP-1, c-IAP-2, and TRAF-1 (Santa Cruz Biotechnology, Inc. CA), and anti-Bcl-2 antibodies (Cell Signaling Technology), in 5% nonfat dry milk-TBS-T at 4° C. overnight. The blots were washed three times with TBS-T for 5 min each wash and incubated with horseradish peroxidase-conjugated secondary antibody (Santa Cruz) in 5% nonfat dry milk-TBS-T at RT for an hour. After five washes with TBS-T, the blots were developed with the enhanced chemiluminescence system (ECL™ Western Blotting System, Amersham Biosciences) and exposed to x-ray film according to the manufacturer's instructions. Protein loading was normalized using anti-β-actin antibodies (Santa Cruz Biotechnology, Inc).

NF-κB [1] = target: T1, NF-κB (Homo sapiens, UniProt P19838+Q04206); assay: NF-κB activity ELISA (TransBinding NF-κB assay kit), BxPC-3 cells; type: cell-based; set-up: endogenous in cells; host or cells: BxPC-3; details: for NF-κB activity with peptides of annexin 1: BxPC-3 cells, 30 μM, 3 h
T1 sequence (Q04206 whole entry): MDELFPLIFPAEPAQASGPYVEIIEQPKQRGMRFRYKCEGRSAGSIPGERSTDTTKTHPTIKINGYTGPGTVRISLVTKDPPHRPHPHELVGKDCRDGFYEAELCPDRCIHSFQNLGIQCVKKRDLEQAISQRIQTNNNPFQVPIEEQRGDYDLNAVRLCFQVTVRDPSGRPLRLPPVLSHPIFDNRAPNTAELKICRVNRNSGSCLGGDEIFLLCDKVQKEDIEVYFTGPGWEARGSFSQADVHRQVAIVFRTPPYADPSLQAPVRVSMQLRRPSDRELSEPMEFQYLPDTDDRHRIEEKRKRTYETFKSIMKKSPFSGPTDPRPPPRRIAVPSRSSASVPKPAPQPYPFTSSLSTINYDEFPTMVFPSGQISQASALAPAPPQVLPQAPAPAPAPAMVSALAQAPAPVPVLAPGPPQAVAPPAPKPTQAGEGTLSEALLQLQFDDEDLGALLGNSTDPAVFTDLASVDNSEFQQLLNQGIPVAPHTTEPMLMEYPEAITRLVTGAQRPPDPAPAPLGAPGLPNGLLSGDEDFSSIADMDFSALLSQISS
T1 sequence (P19838 1-433 limits assumed): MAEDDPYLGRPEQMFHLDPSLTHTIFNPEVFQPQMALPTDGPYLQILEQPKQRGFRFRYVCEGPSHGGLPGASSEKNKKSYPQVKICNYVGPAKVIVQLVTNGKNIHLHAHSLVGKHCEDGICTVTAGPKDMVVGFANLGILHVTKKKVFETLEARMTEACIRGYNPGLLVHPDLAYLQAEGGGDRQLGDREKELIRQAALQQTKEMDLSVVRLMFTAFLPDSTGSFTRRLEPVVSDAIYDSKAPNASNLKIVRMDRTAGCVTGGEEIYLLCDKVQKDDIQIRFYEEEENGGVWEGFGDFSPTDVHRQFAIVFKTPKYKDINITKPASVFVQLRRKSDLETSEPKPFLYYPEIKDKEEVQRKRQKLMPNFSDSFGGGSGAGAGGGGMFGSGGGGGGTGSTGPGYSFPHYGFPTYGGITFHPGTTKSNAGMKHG
Method: (§1) NF-κB activity was measured in these cells using the TransBinding NF-κB assay kit and following the instructions of the manufacturer (Panomics). Briefly, nuclear extracts obtained as described above, were incubated for 30 min in an ELISA plate coated with NF-κB consensus DNA sequence to which p50 protein can bind. After binding, antibody against p50 was added and incubated for 1 hour, followed by HRP-conjugated antibody for 1 hour. Afterwards, luminol/enhancer solution and stable peroxide solution were added and chemoluminescence was detected using a luminometer (Bio-Rad).

[2] = cortisol=1; cited from earlier work
[3] = system: SW480 human colon cancer cells; assay: Apoptosis, Cell Death Detection ELISA, SW480 cells; type: cell-based
Method: Apoptosis was determined using the Cell Death Detection ELISA^PLUS assay kit according to the manufacturer's protocol (Roche, Indianapolis, Ind.). Briefly, the cells were treated with either NO-ASA or Dex for 3 h. Cells were harvested and washed three times with PBS. The cell pellet was resuspended with lysis buffer and incubated for 30 min at RT. Cell […] at 200×g for 10 min. The ELISA assay was performed using 20 μl cell lysate and 80 μl Immunoreagent (containing 72 μl Incubation Buffer, 4 μl Anti-histone-biotin Solution, and 4 μl Anti-DNA-POD Solution) per micro-plate well. The micro-plate was covered with an adhesive foil and incubated on a shaker under gentle shaking at 200 rpm for 2 h at RT. The solution in each well was removed thoroughly by tapping and the pellets were rinsed three times with 200 μl Incubation Buffer. […] The absorbance was measured at 405 nm using the SpectraMax micro-plate reader (Molecular Devices, Sunnyvale).
BxPC-3 or SW480 cells were treated with 30 μM of each of the peptides of annexin 1 for 3 h. NF-κB activity and apoptosis were measured in whole cell lysates using an ELISA assay as described in EXAMPLES 2 and 4. […]

SW480 tumor xenografts = assay: SW480 human colon cancer xenograft in nude mice; type: in vivo, BALB/c nude mice; details: i.p. 40 μg once daily
Method: Female 6-week-old BALB/c nude mice were obtained from The Jackson Laboratory (Bar Harbor, Me.). The animals were housed in a climate- and light-controlled room. Food and water were allowed ad libitum. The SW480 human colon cancer cell line was used to establish xenografts in nude mice. 2×10^6 cells in 100 μl of PBS were injected subcutaneously (s.c.) into the upper portion of the left hind limb of the mice, where they grew as solid tumors. The size of the tumor was measured two times per week using a Venier caliper. The tumor volume was determined using the formula V=L×W(L+W/2)×0.56.
On the 7th day after inoculation, when the tumor size reached an average 240 mm^3, 18 mice were treated with QW-3 administered by i.p. injection of at a dose of 40 μg once daily. The control group (n=18) was administered the vehicle alone. The mice were sacrificed on day 12, and tumors were resected and stored in liquid nitrogen and formalin until further analysis.
Immunohistochemistry was performed on paraffin sections of the tumors. All sections were incubated at 95-100° C. in WCAP reagent (Surgipath) for 30 min, washed and then incubated in 10:1 Methanol:H2O2 for 10 min. Sections were then incubated in rabbit polyclonal PCNA (Santa Cruz, Calif.) or antibody detecting NF-κB activation (Chemicon) for 1 h after which immunoreactivity was detected with an Envision assay kit and DAB reagent (DakoCytomation). All sections were counterstained with haematoxylin and mounted. Negative controls included a non-specific antibody.

NF-κB [4] = target: T1, NF-κB; assay: NF-κB activity ELISA, SW480 cells; type: cell-based; set-up: endogenous in cells; host or cells: SW480
Method: as §1, with “In the same manner as for NO-ASA, BxPC-3 cells were treated for 6 h with different corticosteroid inflammatory drugs, each at 4 μM, and tested for their ability to induce annexin 1. […] NF-κB activity” for “NF-κB activity”
BxPC-3 or SW480 cells were treated with 30 μM of each of the peptides of annexin 1 for 3 h. NF-κB activity and apoptosis were measured in whole cell lysates using an ELISA assay as described in EXAMPLES 2 and 4. […] These peptides are Ac-Gln-Ala-Trp, as set forth in SEQ ID NO:1, the peptide Ac-Phe-Gln-Ala-Tip, as set forth in SEQ ID NO:2 and the peptide Ac-Phe-Leu-Lys-Gln-Ala-Trp, as set forth in SEQ ID NO:3. Other depicted acetylated peptides are Ac-Phe-Leu-Lys (SEQ ID NO:14), Ac-Lys-Gln-Ala-Trp (SEQ ID NO:15), and Ac-Val-Ser-Glu-Lys-Gln-Ala-Trp (SEQ ID NO:16).

Row | NF-κB activity with peptides of annexin 1 (NF-κB [1]) | Molecule | annexin 1 expression with conventional NSAIDs (annexin 1) | other results
1 | – | CC(=O)Oc1ccccc1C(=O)O [conventional ASA, aspirin] | no effect | expression of annexin 1 (annexin 1): failed to induce; activity of NF-κB with weak anti-inflammatory drugs (NF-κB [1]; cells and concentration not given): do not inhibit
2 | – | C[C@]12CCC(=O)C=C1CC[C@@H]1[C@@H]2[C@@H](O)C[C@@]2(C)[C@H]1CC[C@]2(O)C(=O)CO [cortisol] | – | relative anti-inflammatory potency [2]: 1
3 | – | C[C@]12CCC(=O)C=C1CC[C@@H]1[C@@H]2C(=O)C[C@@]2(C)[C@H]1CC[C@]2(O)C(=O)CO [cortisone] | – | expression of annexin 1 (annexin 1): failed to induce
4 | – | CC(C(=O)O)c1ccc(-c2ccccc2)c(F)c1 (stereo not drawn) [flurbiprofen] | no effect | –
5 | – | CC(C)Cc1ccc(C(C)C(=O)O)cc1 (stereo not drawn) [ibuprofen] | no effect | –
6 | – | COc1ccc2c(c1)c(CC(=O)O)c(C)n2C(=O)c1ccc(Cl)cc1 [indomethacin] | no effect | –
7 | – | CN1C(C(=O)Nc2ccccn2)=C(O)c2ccccc2S1(=O)=O [piroxicam] | no effect | –
8 | – | O=C(O)c1ccccc1O [salicylic acid] | no effect | –
9 | – | CC1=C(CC(=O)O)c2cc(F)ccc2/C1=C\c1ccc([S+](C)[O-])cc1 (stereo not drawn) [sulindac] | no effect | –
10 | – | C[C@]12C=CC(=O)C=C1CC[C@H]1[C@@H]3C[C@@H](O)[C@](O)(C(=O)CO)[C@@]3(C)C[C@H](O)[C@@]12F [triamincinolone] | – | relative anti-inflammatory potency [2]: 5
11 | inhibited NF-κB activity | Ac-AMVSEFKQAWFIENEEQQYVQTVK [Ac2-26] | – | –
12 | inhibited NF-κB activity | Ac-Ala-Met-Val-Ser-Glu-Phe-Leu-Lys-Gln-Ala-Trp (Ac-AMVSEFLKQAW) [Ac2-12, commercial peptide of annexin 1] | – | –
13 | inhibited NF-κB activity | Ac-Gln-Ala-Trp [QW-3] | – | apoptosis [3]: enhanced SW480 cell apoptosis; blood levels of IL-6 (SW480 tumor xenografts): decreased levels of IL-6; blood levels of IL-10 (SW480 tumor xenografts): increased the blood levels of IL-10; tumor growth (SW480 tumor xenografts): suppressed tumor growth; NF-κB activity in tumors (SW480 tumor xenografts; tumor sections): inhibited NF-κB activity; cell proliferation by expression of PCNA (immunohistochemistry) (SW480 tumor xenografts; tumor sections): inhibited cell proliferation; NF-κB activity (NF-κB [4]): inhibited NF-κB activity in a concentration-dependent manner
14 | inhibited NF-κB activity | Ac-Phe-Gln-Ala-Trp (Ac-FQAW) [Ac-Phe-Gln-Ala-Tip] | – | –
15 | inhibited NF-κB activity | Ac-Phe-Leu-Lys-Gln-Ala-Trp (Ac-FLKQAW) | – | –
